Measured values published in patent publication US9365572B2, “PI3K and/or mTOR inhibitor” (XUANZHU PHARMA CO., LTD., priority 2012, dated 2016).

Columns and labels:
Lovo = assay: In vitro cytological inhibitory activity (XTT); type: cell-based; conditions: Homo sapiens, 72 hrs
Method: Lovo: Human colon carcinoma cell line;
1. Preparation of agents and compounds:
• 1.1 Preparation of phosphoric acid buffering solution (PBS): 8 g NaCl, 0.2 g KCl, 1.44 g Na2HPO4 and 0.24 g KH2PO4 were weighed and added to 800 mL ultrapure water. The mixture was adjusted to pH=7.4, and ultrapure water was added to the metered volume of IL. Then the autoclaving was conducted for 20 mins. • 1.2 Preparation of XTT detection working solution: 100 mg (2,3-Bis-(2-methoxy-4-nitro-5-sulfophenyl)-2H-tetrazolium-5-carboxanilide); 2,3-bis(2-methoxy-4-nitro-5-sulfophenyl)-5-[(phenylamino)carbonyl]-2H-tetrazolium hydroxide (XTT) powder was weighed, and dissolved under protection from light 300 mL of phenol red-free and serum-free RPMI1640 culture, which had been warmed up to 50° C. The resulting mixture was filtered, packaged and used immediately or in one week. The complete process was conducted under protection from light. • 1.3 Preparation of the test compound • Preparation of the stock solution of the test compound: The test compound powder was dissolved in DMSO in a concentration of 10 mM. • Preparation of the gradiently diluted solution of the test compound: 10 mM of the stock solution of the test compound was successively and gradiently diluted with DMSO by 4 folds for 10 concentrations. […]

Adenosine A1 = Adenosine A1 (Homo sapiens (Human), UniProt P30542); assay: Radioligand binding assay No. 200510; conditions: test substance 10 μM, read-out: Inhibitory rate (%), Adenosine A1
Dopamine D3 = Dopamine D3 (Homo sapiens (Human), UniProt P35462); assay: Radioligand binding assay No. 219800; conditions: test substance 10 μM, read-out: Inhibitory rate (%), Dopamine D3
[1] = biological target: Platelet Activating Factor (PAF) (Homo sapiens (Human), UniProt P25105); assay: Radioligand binding assay No. 265010; conditions: test substance 10 μM, read-out: Inhibitory rate (%), Platelet Activating Factor (PAF)
Potassium Channel hERG = Potassium Channel hERG (Homo sapiens (Human), UniProt Q12809); assay: Radioligand binding assay No. 265900; conditions: test substance 10 μM, read-out: Inhibitory rate (%), Potassium Channel hERG
Rolipram = assay: Radioligand binding assay No. 270000; conditions: test substance 10 μM; rat
[2] = biological target: Serotonin (5-Hydroxytryptamine) 5-HT2B (Homo sapiens (Human), UniProt P41595); assay: Radioligand binding assay No. 271700; conditions: test substance 10 μM, read-out: Inhibitory rate (%), Serotonin (5-Hydroxytryptamine) 5-HT2B
Histamine H1 = Histamine H1 (Homo sapiens (Human), UniProt P35367); assay: Radioligand binding assay No. 239610; conditions: test substance 10 μM, read-out: Inhibitory rate (%), Histamine H1
[3] = tested on: GABAA, Flunitrazepam, Central; assay: Radioligand binding assay No. 226600; conditions: test substance 10 μM; rat
Endothelin ETA = Endothelin ETA (Homo sapiens (Human), UniProt P25101); assay: Radioligand binding assay No. 224010; conditions: test substance 10 μM, read-out: Inhibitory rate (%), Endothelin ETA
Muscarinic M1 = Muscarinic M1 (Homo sapiens (Human), UniProt P11229); assay: Radioligand binding assay No. 252610; conditions: test substance 10 μM, read-out: Inhibitory rate (%), Muscarinic M1
Histamine H2 = Histamine H2 (Homo sapiens (Human), UniProt P25021); assay: Radioligand binding assay No. 239710; conditions: test substance 10 μM, read-out: Inhibitory rate (%), Histamine H2
Neuropeptide Y Y2 = Neuropeptide Y Y2 (Homo sapiens (Human), UniProt P49146); assay: Radioligand binding assay No. 257110; conditions: test substance 10 μM, read-out: Inhibitory rate (%), Neuropeptide Y Y2
Tachykinin NK1 = Tachykinin NK1 (Homo sapiens (Human), UniProt P25103); assay: Radioligand binding assay No. 255520; conditions: test substance 10 μM, read-out: Inhibitory rate (%), Tachykinin NK1
Interleukin IL-1 = Interleukin IL-1 (Mus musculus (Mouse), UniProt P13504); assay: Radioligand binding assay No. 243520; conditions: test substance 10 μM, read-out: Inhibitory rate (%), Interleukin IL-1
[4] = biological target: Serotonin (5-Hydroxytryptamine) 5-HT3 (Homo sapiens (Human), UniProt P46098); assay: Radioligand binding assay No. 271910; conditions: test substance 10 μM, read-out: Inhibitory rate (%), Serotonin (5-Hydroxytryptamine) 5-HT3

Histamine H1, sequence (P35367 whole entry): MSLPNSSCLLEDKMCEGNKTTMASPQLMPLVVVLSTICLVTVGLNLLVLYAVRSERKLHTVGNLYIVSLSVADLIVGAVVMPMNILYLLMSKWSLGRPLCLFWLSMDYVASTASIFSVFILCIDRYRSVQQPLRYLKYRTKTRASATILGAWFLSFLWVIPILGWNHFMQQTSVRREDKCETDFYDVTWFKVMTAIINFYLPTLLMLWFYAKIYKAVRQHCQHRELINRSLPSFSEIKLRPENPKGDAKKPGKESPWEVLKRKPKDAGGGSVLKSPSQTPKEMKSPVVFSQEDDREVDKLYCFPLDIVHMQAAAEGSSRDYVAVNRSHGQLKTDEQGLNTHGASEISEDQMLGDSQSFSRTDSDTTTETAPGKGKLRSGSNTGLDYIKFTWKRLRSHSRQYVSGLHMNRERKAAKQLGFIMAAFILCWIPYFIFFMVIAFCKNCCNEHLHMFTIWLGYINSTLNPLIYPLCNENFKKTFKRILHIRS
Dopamine D3, sequence (P35462 whole entry): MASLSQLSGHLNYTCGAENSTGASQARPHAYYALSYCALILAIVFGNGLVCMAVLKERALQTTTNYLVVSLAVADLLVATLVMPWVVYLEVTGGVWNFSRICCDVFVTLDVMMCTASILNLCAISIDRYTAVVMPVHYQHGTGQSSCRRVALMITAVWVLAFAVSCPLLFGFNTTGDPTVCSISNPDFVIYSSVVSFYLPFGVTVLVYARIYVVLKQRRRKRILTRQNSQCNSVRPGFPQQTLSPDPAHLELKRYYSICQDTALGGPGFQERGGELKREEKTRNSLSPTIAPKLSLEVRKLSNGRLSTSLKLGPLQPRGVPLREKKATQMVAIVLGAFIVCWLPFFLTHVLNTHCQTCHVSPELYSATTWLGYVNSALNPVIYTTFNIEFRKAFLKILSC
Serotonin (5-Hydroxytryptamine) 5-HT2B, sequence (P41595 whole entry): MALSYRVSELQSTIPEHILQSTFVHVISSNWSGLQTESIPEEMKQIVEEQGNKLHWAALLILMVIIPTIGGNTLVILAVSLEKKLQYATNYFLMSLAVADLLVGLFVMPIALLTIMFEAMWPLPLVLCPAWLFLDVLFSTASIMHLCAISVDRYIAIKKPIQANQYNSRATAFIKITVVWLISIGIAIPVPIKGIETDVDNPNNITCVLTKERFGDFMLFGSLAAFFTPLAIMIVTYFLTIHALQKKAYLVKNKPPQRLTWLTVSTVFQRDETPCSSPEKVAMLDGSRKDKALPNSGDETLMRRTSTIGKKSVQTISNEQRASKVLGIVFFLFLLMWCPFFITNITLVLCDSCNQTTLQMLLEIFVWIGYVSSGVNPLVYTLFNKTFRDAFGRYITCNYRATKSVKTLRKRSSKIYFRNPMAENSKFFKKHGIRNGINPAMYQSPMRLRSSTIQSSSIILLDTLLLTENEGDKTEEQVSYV
Neuropeptide Y Y2, sequence (P49146 whole entry): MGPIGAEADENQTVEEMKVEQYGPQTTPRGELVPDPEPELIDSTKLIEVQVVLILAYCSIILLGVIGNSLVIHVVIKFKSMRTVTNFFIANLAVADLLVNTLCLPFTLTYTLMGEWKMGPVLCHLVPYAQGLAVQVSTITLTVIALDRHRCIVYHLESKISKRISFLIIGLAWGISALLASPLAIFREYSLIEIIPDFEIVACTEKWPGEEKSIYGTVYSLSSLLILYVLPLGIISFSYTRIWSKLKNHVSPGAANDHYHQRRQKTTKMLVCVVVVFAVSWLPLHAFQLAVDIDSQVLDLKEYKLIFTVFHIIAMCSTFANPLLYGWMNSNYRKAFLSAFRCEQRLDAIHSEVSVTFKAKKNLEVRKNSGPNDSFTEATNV
Endothelin ETA, sequence (P25101 21-427): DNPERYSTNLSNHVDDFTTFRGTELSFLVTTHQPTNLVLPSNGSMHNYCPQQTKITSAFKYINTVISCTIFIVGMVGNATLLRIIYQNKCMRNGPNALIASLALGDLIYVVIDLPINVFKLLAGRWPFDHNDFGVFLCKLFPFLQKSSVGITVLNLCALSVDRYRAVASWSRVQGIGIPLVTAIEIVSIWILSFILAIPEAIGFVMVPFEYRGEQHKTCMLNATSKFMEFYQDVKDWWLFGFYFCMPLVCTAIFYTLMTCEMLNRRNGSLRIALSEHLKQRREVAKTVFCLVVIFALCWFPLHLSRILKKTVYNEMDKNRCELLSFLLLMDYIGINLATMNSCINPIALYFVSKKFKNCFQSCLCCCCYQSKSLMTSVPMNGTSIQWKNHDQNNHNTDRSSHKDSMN
Muscarinic M1, sequence (P11229 whole entry): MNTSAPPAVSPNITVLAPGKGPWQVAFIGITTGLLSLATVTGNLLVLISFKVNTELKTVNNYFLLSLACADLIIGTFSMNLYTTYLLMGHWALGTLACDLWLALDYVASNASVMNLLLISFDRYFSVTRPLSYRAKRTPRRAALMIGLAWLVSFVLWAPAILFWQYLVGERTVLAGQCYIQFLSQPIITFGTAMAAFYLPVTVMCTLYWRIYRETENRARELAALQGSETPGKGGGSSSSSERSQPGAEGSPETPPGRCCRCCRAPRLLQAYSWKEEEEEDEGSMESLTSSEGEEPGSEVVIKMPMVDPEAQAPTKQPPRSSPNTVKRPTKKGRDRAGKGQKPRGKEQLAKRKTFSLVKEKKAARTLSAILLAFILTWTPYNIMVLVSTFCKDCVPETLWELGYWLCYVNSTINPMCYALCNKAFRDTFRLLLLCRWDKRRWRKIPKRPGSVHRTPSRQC
Platelet Activating Factor (PAF), sequence (P25105 whole entry): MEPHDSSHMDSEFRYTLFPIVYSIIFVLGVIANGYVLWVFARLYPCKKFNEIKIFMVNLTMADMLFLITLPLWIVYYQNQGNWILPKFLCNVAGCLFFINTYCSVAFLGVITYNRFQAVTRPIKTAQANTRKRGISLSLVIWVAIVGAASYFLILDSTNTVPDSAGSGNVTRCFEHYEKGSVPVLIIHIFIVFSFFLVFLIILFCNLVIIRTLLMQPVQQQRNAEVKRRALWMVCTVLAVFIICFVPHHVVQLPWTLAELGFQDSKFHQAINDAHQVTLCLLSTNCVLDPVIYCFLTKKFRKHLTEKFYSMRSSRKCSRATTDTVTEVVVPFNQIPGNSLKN
Histamine H2, sequence (P25021 whole entry): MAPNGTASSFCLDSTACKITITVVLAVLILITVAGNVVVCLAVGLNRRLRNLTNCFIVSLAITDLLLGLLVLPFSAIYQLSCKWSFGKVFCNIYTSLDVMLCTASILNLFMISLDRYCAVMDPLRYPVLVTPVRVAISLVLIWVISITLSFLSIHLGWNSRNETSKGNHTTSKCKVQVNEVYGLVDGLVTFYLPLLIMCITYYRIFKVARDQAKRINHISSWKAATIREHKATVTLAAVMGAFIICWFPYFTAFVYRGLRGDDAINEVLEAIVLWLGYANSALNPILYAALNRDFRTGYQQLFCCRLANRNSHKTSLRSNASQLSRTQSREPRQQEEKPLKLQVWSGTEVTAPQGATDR
Adenosine A1, sequence (P30542 whole entry): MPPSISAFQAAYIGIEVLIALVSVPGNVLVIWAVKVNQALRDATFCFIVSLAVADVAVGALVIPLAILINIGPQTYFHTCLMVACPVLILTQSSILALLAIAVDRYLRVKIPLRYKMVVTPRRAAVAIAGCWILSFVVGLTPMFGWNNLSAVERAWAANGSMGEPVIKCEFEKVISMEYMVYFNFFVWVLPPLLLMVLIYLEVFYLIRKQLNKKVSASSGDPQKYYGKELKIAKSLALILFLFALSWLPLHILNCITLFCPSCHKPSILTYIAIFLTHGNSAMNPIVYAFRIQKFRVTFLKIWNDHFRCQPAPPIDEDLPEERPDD
Interleukin IL-1, sequence (P13504 20-576): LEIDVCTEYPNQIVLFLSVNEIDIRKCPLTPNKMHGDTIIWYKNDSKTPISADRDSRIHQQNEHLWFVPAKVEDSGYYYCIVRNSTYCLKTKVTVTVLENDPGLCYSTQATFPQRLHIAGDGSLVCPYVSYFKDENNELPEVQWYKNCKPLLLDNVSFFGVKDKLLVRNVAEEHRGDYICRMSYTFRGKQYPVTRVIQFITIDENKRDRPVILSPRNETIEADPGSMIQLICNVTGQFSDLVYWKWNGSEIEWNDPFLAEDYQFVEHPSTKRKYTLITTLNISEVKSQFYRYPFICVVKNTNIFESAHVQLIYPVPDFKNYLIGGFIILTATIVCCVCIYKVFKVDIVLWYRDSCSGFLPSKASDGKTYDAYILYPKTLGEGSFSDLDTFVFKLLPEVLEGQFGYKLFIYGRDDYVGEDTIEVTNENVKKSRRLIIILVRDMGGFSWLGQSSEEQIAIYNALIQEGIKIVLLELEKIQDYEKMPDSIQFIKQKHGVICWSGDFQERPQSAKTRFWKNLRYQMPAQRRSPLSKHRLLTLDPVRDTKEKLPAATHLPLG
Tachykinin NK1, sequence (P25103 whole entry): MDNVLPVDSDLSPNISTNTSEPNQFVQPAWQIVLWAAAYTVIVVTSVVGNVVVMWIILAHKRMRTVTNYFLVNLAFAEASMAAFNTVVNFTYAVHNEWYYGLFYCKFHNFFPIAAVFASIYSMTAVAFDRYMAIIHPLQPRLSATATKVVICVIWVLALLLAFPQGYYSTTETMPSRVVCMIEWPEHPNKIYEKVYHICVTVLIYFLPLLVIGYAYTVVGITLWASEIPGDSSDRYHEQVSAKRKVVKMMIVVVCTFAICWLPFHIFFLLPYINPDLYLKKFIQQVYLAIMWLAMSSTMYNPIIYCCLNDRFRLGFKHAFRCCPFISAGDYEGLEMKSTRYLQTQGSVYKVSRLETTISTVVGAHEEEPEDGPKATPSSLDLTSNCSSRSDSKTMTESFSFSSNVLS

Structure (SMILES): Nc1ccc(-c2ccc3ncc4c(=O)[nH]c(=O)n(-c5cccc(C(F)(F)F)c5)c4c3n2)cn1 [Compound 5, 9-(6-aminopyridin-3-yl)-1-(3-(trifluoromethyl)phenyl)pyrimido[5,4-c][1,5]naphthyridine-2,4(1H,3H)-dione]
- IC50 (Lovo): 50.1 nM
- inhibition at 10 µM (Adenosine A1): 20%
- inhibition at 10 µM (Dopamine D3): 15%
- inhibition at 10 µM [1]: 20%
- inhibition at 10 µM (Potassium Channel hERG): 2%
- Inhibitory rate (%), Rolipram (Rolipram): 20%
- inhibition at 10 µM [2]: 13%
- inhibition at 10 µM (Histamine H1): 10%
- Inhibitory rate (%), GABAA, Flunitrazepam, Central [3]: 34%
- inhibition at 10 µM (Endothelin ETA): 3%
- inhibition at 10 µM (Muscarinic M1): 18%
- inhibition at 10 µM (Histamine H2): -2%
- inhibition at 10 µM (Neuropeptide Y Y2): 10%
- inhibition at 10 µM (Tachykinin NK1): 20%
- inhibition at 10 µM (Interleukin IL-1): 11%
- inhibition at 10 µM [4]: 8%
